The source of these data is patent publication US20130253449A1, “NORADRENERGIC AND SPECIFIC SEROTONERGIC ANTIDEPRESSANT-CONTAINING TRANSDERMAL PATCH” (priority 2010, published 2013).

The subject of data set [1] is brain monoamine (NA, DA and 5-HT). Nature of the data set: Measurement of brain monoamine level (microdialysis, prefrontal region) during 12-hour mirtazapine administration. In kind it is in vivo, rat. Here is the method:
Rats (male, body weight: 200 to 300 g, n=5) were anesthetized by inhalation of isoflurane, and then a cannula for long-term continuous administration was buried under the skin of each rat and a guide (microdialysis) was in the prefrontal region thereof. In 5 to 7 days after the guide insertion, a probe for measurement of monoamine in the brain was inserted into the prefrontal region, and via the microsyringe pump connected to the probe, a perfusate was perfused at a flow rate of 0.5 μL/min. For mirtazapine administration, a mirtazapine 3 mg/mL/kg solution was administered in a predetermined dose via the microsyringe pump, taking 12 hours. A Ringer' s solution was used as the perfusate, which was collected at intervals of 1 hour using a fraction collector.
(§1) Monoamine was measured from the perfusate collected by the fraction collector, and mirtazapine was measured from the plasma sample through HPLC.

Data set [2] is described as follows: Measurement of plasma mirtazapine level during 12-hour mirtazapine administration. The data set is classed as in vivo. Conditions: rat, subcutaneous, 6 hours after start of administration, 3 mg/mL/kg over 12 hours, read-out: mean concentration of mirtazapine in rat plasma (mean±SEM). As to the method: Next, at the same dose mode and through the same administration route as above, mirtazapine (3 mg/mL/kg) was administered in a predetermined dose, taking 12 hours, and in 6 hours after the start, the blood was collected. The time at which the administration was started was referred to as the test start time. Heparin was added to the collected blood and then centrifuged, and the thus-separated plasma was the sample.
as §1

The mark [3] stands for this setting: 18 hours after start of administration, mirtazapine 3 mg/mL/kg solution over 12 hours.

With `CN1CCN2c3ncccc3Cc3ccccc3C2C1` (stereo not shown) [mirtazapine], the “NA and DA in rat prefrontal region” value in data set [1] (1 hour after start of mirtazapine administration) was “increase in NA and DA was admitted”. Moreover, the “NA level in rat prefrontal region (mean±SEM)” value in data set [1] (7 hours after start of administration, mirtazapine 3 mg/mL/kg solution over 12 hours, n=5) was found to be 184.7±17.3%. The “DA level in rat prefrontal region” value in data set [1] (8 hours after start of administration, mirtazapine 3 mg/mL/kg solution over 12 hours, n=5) was 222.1±38.5%. Further, in data set [1] (setting [3]), the “DA level in rat prefrontal region” value is listed as 159.2±15.6% and the “NA level in rat prefrontal region” value stood at 124.2±10.7. Moreover, in data set [1] (mirtazapine 3 mg/mL/kg solution over 12 hours), the “influence on 5-HT in rat prefrontal region” value is listed as “no influence on 5-HT was admitted”. In addition, the concentration at 6 h in data set [2] amounted to 27.5 ± 3.5 ng/mL.
